Reference: patent US20250287948A1, “TOBACCO ALKALOID INSECT REPELLENT IN PLANTS” (Philip Morris Products S.A., priority 2022, published 2025)
Values joined by “and” are separate entries in the source; they are usually repeats but may differ in a detail not shown here. Equal entries are not always repeated.

Tests used:
whitefly [1] = assay: Whitefly mortality on treated leaves; type: in vivo; settings: concentration 5 percent
Description: (§1) For the purpose of the study, leaf disks were dipped for a total time of 30 seconds into the prepared solutions and left dry for 10 minutes at room temperature. Subsequently, the leaf disks were deposited at the bottom of glass tubes and a minimum of 20 adult whiteflies were introduced into the tubes.
The study also assessed the whitefly mortality rate over the duration of the evaluation period. […]

adult whitefly [2] = assay: Tube test assay: repelling effect on adult whitefly, treated leaf disks (Examples 1-3); type: in vivo
Description: For the purpose of the study, a tube test assay was performed using solutions of anatabine and DEET prepared according to Table 1.
For the purpose of the study, leaf disks were dipped for a total time of 30 seconds into the prepared solutions and left to dry for 10 minutes at room temperature. Subsequently, the leaf disks were deposited at the bottom of glass tubes and a minimum of 20 adult whiteflies were introduced into the tubes. […] The repelling effect of both anatabine and DEET is shown in Table 2 and was calculated by counting the number of whitefly landing on a leaf compared to the placebo control, using the Abbott's formula: […]
The placebo control defines the baseline, against which the repelling effect is then calculated according to the formula above.
For the purpose of the study, a tube test assay was performed using solutions of anatabine at three different concentrations prepared according to Table 3.
The placebo control defines the baseline, against which the repelling effect is then calculated.
as §1, with “left to” for “left”, “tubes. The repelling effect of anatabine at three different concentrations was measured at different time points: after 1 hour, 3 hours, 6 hours. the repelling effect of anatabine at different concentrations is shown in Table 4.” for “tubes.”
A concentration of 5 percent was chosen based on the results of Example 2. […] In the placebo control the leaves were treated with solvent only. The placebo control defines the baseline, against which the repelling effect is then calculated.
as §1

whitefly [3] = assay: Presence of eggs on treated leaves, evaluated visually; type: in vivo; settings: concentration 5 percent; evaluation period of up to 6 days (144 hours)
Description: In addition, the presence and amount of eggs on the leaves after a period of 48 hours was evaluated visually and the results are shown in Table 7.
The presence of eggs was visually monitored 24 hours after each infestation time point.

leaves = assay: Damage to leaves caused by treatment
Description: as §1, with “left to” for “left”
as §1

adult whitefly [4] = assay: Tube test assay: repelling effect with whitefly introduced at later infestation time points (Example 4); type: in vivo; settings: concentration 5 percent; for repelling effect: remaining 5 days (up to 123 hours) of the evaluation period
Description: The repelling effect of anatabine on adult whitefly was evaluated in a further comparative study which introduced additional whitefly and freshly treated leaves at set evaluation time points. For the purpose of the study, a tube test assay was performed using solutions of anatabine and DEET at a concentration of 5 percent together with a placebo solution, as shown in Table 10. The placebo control defines the baseline, against which the repelling effect is then calculated.
Whitefly were introduced into the tube at infestation time points: 48, 72 and 120 hours and the repelling effect was measured after 3 hours at evaluation time points: 51, 75 and 123 hours.

[5] = concentration 5 percent, evaluation time 0 hour (Example 3)
[6] = concentration 5 percent, evaluation time 6 hour (Example 3)
[7] = concentration 5 percent, evaluation time 24 hour (Example 3)
[8] = concentration 5 percent, evaluation time 48 hour (Example 3)
[9] = infestation time 48 hour, evaluation time 51 hour
[10] = infestation time 72 hour, evaluation time 75 hour
[11] = infestation time 120 hour, evaluation time 123 hour
[12] = concentration 1.0 percent, evaluation time 0 hour
[13] = concentration 1.0 percent, evaluation time 1 hour
[14] = concentration 1.0 percent, evaluation time 3 hour

Structure (SMILES): COC(=O)c1ccccc1 [Methyl Benzoate, methyl benzoate, reference compound]
- Mean Mortality (whitefly [1]; evaluation time 0 hour): 0.0%
- Mean Mortality (whitefly [1]; evaluation time 6 hour): 1.4%
- Mean Mortality (whitefly [1]; evaluation time 24 hour): 47.6%
- Mean Mortality (whitefly [1]; evaluation time 48 hour): 77.8%
- drop of the repelling effect (adult whitefly [2]; concentration 5 percent, by the end of the 48 hours evaluation period): ~25%
- Mean Repellence (adult whitefly [2]; [5]): 100%
- Mean Repellence (adult whitefly [2]; [6]): 47.2%
- Mean Repellence (adult whitefly [2]; [7]): 76.8%
- Mean Repellence (adult whitefly [2]; [8]): 76.5%

Structure (SMILES): C1=CCC(c2cccnc2)NC1 (stereo not drawn) [Anatabine, anatabine]
- number of eggs observed on the leaves (whitefly [3]): remained low
- Mean Mortality (whitefly [1]; evaluation time 0 hour): 0.0%
- Mean Mortality (whitefly [1]; evaluation time 6 hour): 7.6%
- Mean Mortality (whitefly [1]; evaluation time 24 hour): 41.3%
- Mean Mortality (whitefly [1]; evaluation time 48 hour): 84.6%
- Leaves damage (leaves; concentration 5 percent, evaluation time 48 hour): did not cause any damage
- damage to leaves (leaves; concentrations of 5 percent or less (Example 2)): not damaged
- Mean Repellence (adult whitefly [4]; [9]): 100%
- Mean Repellence (adult whitefly [4]; [10]): 85.3%
- Mean Repellence (adult whitefly [4]; [11]): 82.2%
- repelling effect (adult whitefly [4]): more than 80%
- Mean Repellence (adult whitefly [2]; [12]): 81.3%
- Mean Repellence (adult whitefly [2]; [13]): 90.0%
- Mean Repellence (adult whitefly [2]; [14]): 96.0%
- Mean Repellence (adult whitefly [2]; concentration 1.0 percent, evaluation time 6 hour): 88.9%
- repelling effect (adult whitefly [2]; concentration 1.0 percent, throughout the evaluation period of 6 hours): over 80%
- Mean Repellence (adult whitefly [2]; concentration 2 percent, evaluation time 3 hour): 100%
- Mean Repellence (adult whitefly [2]; concentration 2 percent, evaluation time 6 hour): 100%
- Mean Repellence (adult whitefly [2]; [5]): 100%
- Mean Repellence (adult whitefly [2]; concentration 5 percent, evaluation time 3 hour (Example 2)): 100%
- Mean Repellence (adult whitefly [2]; concentration 5 percent, evaluation time 6 hour (Example 2)): 100%
- Mean Repellence (adult whitefly [2]; [6]): 100%
- Mean Repellence (adult whitefly [2]; [7]): 100%
- Mean Repellence (adult whitefly [2]; [8]): 100%
- repelling effect (adult whitefly [2]; concentration 5 percent, throughout the evaluation period of 48 hours): 100%
- Mean Repellence (adult whitefly [2]; concentration 10 percent, evaluation time 3 hour): 100%
- Mean Repellence (adult whitefly [2]; concentration 10 percent, evaluation time 6 hour): 100%
- repelling effect (adult whitefly [2]; regardless of the concentration (2, 5, 10 percent), 3 and 6 hours): 100%

Structure (SMILES): CCN(CC)C(=O)c1cccc(C)c1 [DEET, N,N-Diethyl-meta-toluamide, reference compound]
- Mean Mortality (whitefly [1]; evaluation time 0 hour): 0.0%
- Mean Mortality (whitefly [1]; evaluation time 6 hour): 1.4%
- Mean Mortality (whitefly [1]; evaluation time 24 hour): 50.0%
- Mean Mortality (whitefly [1]; evaluation time 48 hour): 80.3%
- drop of efficacy (adult whitefly [4]; after the first 48 hours): ~50%
- Mean Repellence (adult whitefly [4]; [9]): 54.1%
- Mean Repellence (adult whitefly [4]; [10]): 55.9%
- Mean Repellence (adult whitefly [4]; [11]): 48.9%
- repelling effect (adult whitefly [4]): below 50%
- drop of the repelling effect (adult whitefly [2]; concentration 1.0 percent, after 6 hours): ~40%
- Mean Repellence (adult whitefly [2]; [12]): 87.5%
- Mean Repellence (adult whitefly [2]; [13]): 90.0%
- Mean Repellence (adult whitefly [2]; [14]): 68.0%
- Mean Repellence (adult whitefly [2]; [5]): 100%
- Mean Repellence (adult whitefly [2]; [6]): 100%
- Mean Repellence (adult whitefly [2]; [7]): 94.9%
- Mean Repellence (adult whitefly [2]; [8]): 93% and 93.4%
